Experimental data taken from patent publication US10064909B2, “Compositions and methods for chronic use of a weight-gaining compound” (priority 2015, dated 2018).

Assays:
Type in all cases: in vivo
[1] = Safety and effectiveness of daily capromorelin in cats with CKD for 90 days (field study, Example 9)
Experimental: This study was to confirm the safety and effectiveness of AT-002 (capromorelin) in cats under field conditions using a dose of 2 mg/kg administered once daily for 90 days. The study tested the hypotheses that AT-002 will maintain or increase bodyweight, improve body condition score (BCS), improve muscle condition score (MCS), improve appetite and/or improve quality of life (QoL) in cats. This was a double-masked, randomized, placebo-controlled, multi-site, proof of concept field study.
This study enrolled cats diagnosed with chronic kidney disease (CKD) and a minimum 6-month history of losing weight. The enrollment target was for a minimum of 15 evaluable cases in the AT-002 group and 15 evaluable cases in the Control Product (CP; placebo) group. The Investigator and all study personnel were masked to treatment code (A or B) and treatment group (AT-002 or CP). The Dispenser and Owner remained blinded to treatment group (AT-002 or CP).
Cats were treated with a dosage of 2 mg/kg body weight of AT-002 (AT-002) or a placebo (CP) formulation at the same dose volume as the AT-002 once daily for 90±3 days. Day 0 was the first day of dosing. Cats were evaluated on Day 0, Day 14±1, Day 30±2, Day 60±3 and Day 90±3. The primary effectiveness variable was change in bodyweight from Day 0 through Day 90±3. Secondary effectiveness variables included BCS, MCS, owner appetite assessments and owner QoL assessments.
After enrollment, each case was randomly assigned to AT-002 or CP in a 1:1 ratio. The enrollment target was at least 30 evaluable cases (15 AT-002 and 15 CP) per the study randomization schedule across all sites.
Cats included in the study were spayed/neutered cats of any age and breed with a documented historical decrease in bodyweight over the previous 6 months, and a diagnosis of chronic kidney disease (IRIS stages II, III or IV). Cats on medications for certain stable, chronic conditions were allowed. Excluded from the study were cats in crisis or moribund, cats with documented and uncontrolled hyperthyroidism or inflammatory bowel disease, cats in which food intake is contraindicated (i.e. suspected foreign body, gastrointestinal surgery), cats with dental disease severe enough to impair food intake, cats with diabetes, and cats currently receiving prohibited medications.
The Owner maintained the feeding regime the cat was on at study enrollment. No special foods and no special feeding schedule were required. Water was available ad libitum. The cat's diet was monitored and a “Diet History” completed when the Investigator interviewed the Owner at screening/qualification (Day 0), Day 30±2, Day 60±3 and Day 90±3 or at the last study visit (i.e. early removal).
Bodyweight was measured in pounds to the nearest tenth decimal place as part of the physical examination at screening/qualification/Day 0, Day 14±1, Day 30±2, Day 60±3 and Day 90±3 and at the time of any unscheduled visit or early removal from the study. […]

[2] = Laboratory cats modelling CKD safety pilot study
Text: This study sought to define a capromorelin pharmacokinetic profile in serum of cats with compromised kidney function, to determine if accumulation of capromorelin in serum occurred after 14 days of treatment, and to observe cats for any potential adverse effects of treatment not seen in normal cats. The target population for the capromorelin oral solution included cats with CKD. Therefore, this study used laboratory with significant portions of their kidneys surgically removed and subsequently compromised kidney function indicated by increased serum creatinine and BUN. These cats were developed as a model by Charles River, and are maintained at a colony at their facility in Ballina, Ireland.
Sixteen cats with compromised kidney function were enrolled in the study and randomized to three groups. Animals assigned to Group 1 (n=6) were administered AT-002 once on Day 0 by intravenous catheter at a dose rate of 0.75 mg/kg per cat. Animals assigned to Group 2 (n=6) were administered the AT-002 daily for 14 days by subcutaneous injection at a dose rate of 2 mg/kg. Subcutaneous and intravenous treatment routes were used to assure that sufficient drug exposure occurred. Animals assigned to Group 3 (n=4) served as untreated controls.
Blood samples were collected for capromorelin and/or IGF-1 analysis from animals assigned to Group 1 on Study Day 0. Blood samples were also collected from animals assigned to Groups 2 and 3 on Study Days −1 and 13 (prior to dosing) for hematology and clinical chemistry analysis. Appetite was assessed by food intake and weight gain. Bodyweight measurements were performed on Days −7, −1 (all groups) and on Day 13 (Groups 2 and 3 only). Food intake was monitored from Day −7 to Day 13 inclusive for animals assigned to Groups 2 and 3. Animals were observed daily for clinical signs.

[3] = Two-week oral toxicity study in cats
Experimental: This study determined the safety of capromorelin when administered orally to cats. Groups of 3 male and 3 female (n=6/group) mixed breed cats were given capromorelin as an oral capsule once daily at doses of 9, 15, 30 and 60 mg/kg for 14 consecutive days. A similar group was given microcrystalline cellulose as a placebo control. All animals were observed daily for clinical signs and assessed for food consumption, with bodyweights recorded 7 days before dosing and again at euthanasia. Other measurements included periodic clinical pathology evaluations of hematology, serum chemistry and urinalysis. After the dosing period, cats were euthanized and necropsied.

CN1N=C2CCN(C(=O)[C@@H](COCc3ccccc3)NC(=O)C(C)(C)N)C[C@@]2(Cc2ccccc2)C1=O.O=C(O)C(O)C(O)C(=O)O [capromorelin, N-[(2R)-1-[(3aR)-2-methyl-3-oxo-3a-(phenylmethyl)-6,7-dihydro-4H-pyrazolo[4,3-c]pyridin-5-yl]-1-oxo-3-(phenylmethoxy)propan-2-yl]-2-amino-2-methylpropanamide L-tartrate]
adverse events with evidence for a potential relationship to treatment ([1]; 2 mg/kg once daily, 90 days): increased salivation and potentially vomiting
tolerability ([1]; 2 mg/kg once daily, 90 days): well-tolerated
body condition score, muscle condition score, owner appetite assessment and quality of life parameters ([1]; 2 mg/kg once daily, vs placebo): no meaningful statistical differences
bodyweight during the treatment period ([1]; 2 mg/kg oral once daily, 90 days): gained weight
mean descriptive (monthly) quality of life score ([1]; 2 mg/kg, Day 0 to Day 90): remained the same
bodyweight ([2]; Group 2, 2 mg/kg/day subcutaneous, Day -7 to Day 13): lost bodyweight
appetite stimulation (food intake, bodyweight) ([2]; cats with compromised kidney function, 2 mg/kg subcutaneous daily 14 days): unable to stimulate appetite
drug accumulation (pharmacokinetic profiles) ([2]; cats with compromised kidney function, IV 0.75 mg/kg once or SC 2 mg/kg daily 14 days): no evidence of drug accumulation
NOAEL at 14 days ([3]; both sexes, mixed breed, cat, in vivo, cats, oral capsule once daily, 14 days, read-out: no-observed-adverse-effect-level (NOAEL)): 15 mg/kg/day
30 mg/kg dose level relative to proposed clinically effective dose ([3]; cats): 15 times
clinical pathology changes ([3]; cats, 15 to 60 mg/kg dosing groups, sporadic): increases in serum and urine glucose
clinical signs related to capromorelin ([3]; cats, 30 and 60 mg/kg treatment groups): emesis, sporadic salivation, and lethargy/depression
tissue findings at necropsy (gross and microscopic) ([3]; cats, 14 days): not associated with any abnormal tissue findings
tolerability ([3]; cats, oral capsule 9, 15, 30 and 60 mg/kg, 14 days): well tolerated
mean absolute and relative liver weights ([3]; females 30 and 60 mg/kg, absolute liver weights in males at all dosages): increased
